# Legend:
# [1] = target: T1, human TrkB (Homo sapiens, UniProt Q16620); assay: ^3H-LSD saturation binding to TrkB immunoprecipitated from HEK293T lysates
# T1 construct: GFP; expressed in transfected cells; host or cells: HEK293T
# Protocol: (§1) Binding assays were performed as previously described with minor modifications. […] Samples from mouse embryo (E18) brains were also lysed, vortexed, sonicated and centrifuged for binding assays. Plates were then washed with PBS. […] For the competition binding assays with biotinylated R,R-HNK, the amino-biotinylation of R,R-HNK was performed using a commercial kit (Thermo Scientific, EZ-Link NHS-PEG4 Biotinylation Kit, 21455) and the reaction monitored by MS. A mixture of biotinylated R,R-HNK (10 µM) and unlabeled compounds (1 pM to 10 µM) in PBS was added to the 96-well plates containing the immunoprecipitated TrkB and incubated for 1 h at room temperature. […] Luminescence was determined via streptavidin conjugated with horseradish peroxidase (HRP; Thermo Fisher Scientific, 21126; 1:5,000, 1 h at room temperature) in reaction with the Pierce ECL substrate (Thermo Fisher Scientific, 32106). Luminescence from blank wells that contained all reagents but the sample lysates was used to determine nonspecific binding. To obtain the binding curves, results from binding assays were fitted to the equation of specific binding with Hill slope from GraphPad Prism 9.2. To calculate koff values, results were fitted to the equation of dissociation of one phase exponential decay from GraphPad Prism 9.2.
# [2] = target: T2, rat TrkB (WT) (Rattus norvegicus, UniProt Q63604); assay: as above
# T2 construct: expressed in transfected cells; host or cells: HEK293T
# T2 sequence (Q63604 32-821): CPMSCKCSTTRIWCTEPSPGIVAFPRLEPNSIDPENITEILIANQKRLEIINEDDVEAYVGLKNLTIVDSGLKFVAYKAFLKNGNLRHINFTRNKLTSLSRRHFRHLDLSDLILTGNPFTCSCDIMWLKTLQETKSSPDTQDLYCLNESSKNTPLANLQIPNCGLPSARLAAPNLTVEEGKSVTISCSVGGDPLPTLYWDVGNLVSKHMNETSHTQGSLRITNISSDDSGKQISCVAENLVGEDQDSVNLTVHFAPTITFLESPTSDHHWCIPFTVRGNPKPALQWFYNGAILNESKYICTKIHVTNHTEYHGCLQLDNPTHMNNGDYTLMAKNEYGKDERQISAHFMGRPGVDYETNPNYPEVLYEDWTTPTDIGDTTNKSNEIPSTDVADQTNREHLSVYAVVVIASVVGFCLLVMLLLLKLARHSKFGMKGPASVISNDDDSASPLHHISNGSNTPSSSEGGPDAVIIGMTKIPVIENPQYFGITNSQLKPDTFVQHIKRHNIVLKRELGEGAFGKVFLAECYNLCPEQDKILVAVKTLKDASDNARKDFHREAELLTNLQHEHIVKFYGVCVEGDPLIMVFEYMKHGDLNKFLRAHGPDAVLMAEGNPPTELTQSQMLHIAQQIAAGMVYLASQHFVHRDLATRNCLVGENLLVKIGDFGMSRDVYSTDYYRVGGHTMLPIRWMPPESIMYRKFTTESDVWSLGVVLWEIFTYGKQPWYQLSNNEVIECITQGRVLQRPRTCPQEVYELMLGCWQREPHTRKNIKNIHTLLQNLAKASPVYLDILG
# Protocol: as §1
# [3] = target: T3, mouse TrkB (Mus musculus, UniProt P15209); assay: ^3H-LSD saturation binding to immunoprecipitated TrkB
# T3 construct: from tissue; host or cells: mouse embryo (E18) brain
# T3 sequence (P15209 32-821): as the sequence (Q63604 32-821) above, with M3T, T9S, T10A, I32V, K63R, G84S, T153M, I185L, T394S, N770S counted along it
# Protocol: as §1
# [4] = target: T4, TrkB WT (Rattus norvegicus, UniProt Q63604); assay: Radioligand dissociation binding of ^3H-LSD; details: ext fig 1c, n=3
# T4 construct: expressed in transfected cells; host or cells: HEK293T
# T4 sequence (Q63604 32-821): as the sequence (Q63604 32-821) above
# Protocol: as §1
# [5] = target: T5, TrkB Y433F (Rattus norvegicus, UniProt Q63604, Y433F); assay: Radioligand dissociation binding of ^3H-LSD; details: ext fig 1c, n=3
# T5 construct: expressed in transfected cells; host or cells: HEK293T
# T5 sequence (Q63604 32-821 Y433F): as the sequence (Q63604 32-821) above, with Y402F counted along it
# Protocol: as §1
# [6] = test system: TrkB pY816; assay: ELISA of TrkB phosphorylation (pY816) in neuronal cultures; type: cell-based, rat; details: cortical and hippocampal cultures
# Protocol: (§2) The phosphorylation of TrkB (pY816) and interaction with PLCγ1 were assessed by enzyme-linked immunosorbent assay (ELISA) as previously described[11],[80],[81] with minor modifications. Briefly, white 96-well plates (PerkinElmer, OptiPlate 96F-HB) were precoated with goat anti-TrkB (R&D systems, AF1494; 1:500, overnight, 4 °C) antibody in carbonate buffer (pH 9.8) and blocked with 3% BSA in PBS with 0.1% Tween-20 (PBS-T) for 2 h at room temperature. […] Samples were incubated overnight at 4 °C, and 24 h later plates were washed with PBS-T and incubated with either rabbit anti-phospho-TrkB(Tyr816) (Cell Signaling Technology, 4168S; 1:2,000), rabbit anti-PLCγ1 (Cell Signaling Technologies, 5690S; 1:2,000) or rabbit anti-Trk (Cell Signaling Technologies, 92991; 1:2,000) antibodies overnight at 4 °C. After washing with PBS-T, plates were incubated with HRP-conjugated goat anti-rabbit (Bio-Rad, 170–5046; 1:5,000, 1 h, room temperature) antibody, followed by more washing with PBS-T. Finally, the chemiluminescent signal was read after brief incubation with Pierce ECL substrate (Thermo Fisher Scientific, 32106). Luminescence from blank wells that contained all reagents but the sample lysates was used to determine background signal.
# [7] = test system: TrkB pY816; assay: pY816 in PFC and hippocampus after single LSD injection (ELISA, immunoblot); type: in vivo; details: mouse brain samples, single administration
# Protocol: as §2, with “signal. […]” for “signal.”
# [8] = target: T6, TrkB:PLCγ1 (Mus musculus, UniProt P15209); assay: TrkB:PLCγ1 interaction in PFC and hippocampus after single LSD injection (ELISA, co-immunoprecipitation); type: in vivo; details: WT mice, single administration
# T6 construct: from tissue; host or cells: prefrontal cortex and hippocampus of adult mice
# T6 sequence (P15209 32-821): as the sequence (Q63604 32-821) above, with M3T, T9S, T10A, I32V, K63R, G84S, T153M, I185L, T394S, N770S counted along it
# Protocol: as §2, with “signal. […]” for “signal.”
# [9] = target: T7, TrkB:PLCγ1 (Mus musculus, UniProt P15209, Y433F); assay: as above; type: in vivo; details: Y433F^+/− mice
# T7 construct: from tissue; host or cells: prefrontal cortex and hippocampus of adult mice
# T7 sequence (P15209 32-821 Y433F): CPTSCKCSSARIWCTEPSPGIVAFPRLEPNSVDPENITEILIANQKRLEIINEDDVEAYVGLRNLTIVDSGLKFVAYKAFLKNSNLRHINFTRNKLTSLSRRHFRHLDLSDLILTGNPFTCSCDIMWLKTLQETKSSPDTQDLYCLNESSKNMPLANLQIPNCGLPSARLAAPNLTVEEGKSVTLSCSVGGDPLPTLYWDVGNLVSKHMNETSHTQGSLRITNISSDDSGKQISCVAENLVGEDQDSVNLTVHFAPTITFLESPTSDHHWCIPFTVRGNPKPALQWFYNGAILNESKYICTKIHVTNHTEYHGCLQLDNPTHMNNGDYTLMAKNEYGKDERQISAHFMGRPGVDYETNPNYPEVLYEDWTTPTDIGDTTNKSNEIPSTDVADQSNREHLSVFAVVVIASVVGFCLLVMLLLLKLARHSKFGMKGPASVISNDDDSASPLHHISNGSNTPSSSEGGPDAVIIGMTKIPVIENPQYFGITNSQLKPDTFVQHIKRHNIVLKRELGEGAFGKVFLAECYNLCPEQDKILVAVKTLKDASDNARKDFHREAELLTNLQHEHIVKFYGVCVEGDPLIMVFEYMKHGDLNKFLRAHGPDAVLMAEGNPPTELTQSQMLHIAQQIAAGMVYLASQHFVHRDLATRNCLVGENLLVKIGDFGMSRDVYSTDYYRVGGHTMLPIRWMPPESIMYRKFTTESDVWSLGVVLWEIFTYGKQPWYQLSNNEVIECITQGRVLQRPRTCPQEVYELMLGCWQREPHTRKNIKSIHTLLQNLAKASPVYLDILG
# T7 sequence (P15209 32-821, stated change not applied): as the sequence (P15209 32-821 Y433F) above, with F402Y counted along it
# Protocol: as §2, with “signal. […]” for “signal.”
# [10] = test system: pmTOR; assay: Western blot of mTOR phosphorylation in cortical neurons; type: cell-based, rat; details: LSD 100 nM
# Protocol: In a separate set of experiments to examine the effect of 5-HT2A activation, M100907 (100 nM) was administered as a 10 min pretreatment and remained in the medium for the rest of the experiment. Next, cells were lysed and centrifuged. […] The co-immunoprecipitation was carried out as previously described[11],[23],[24] with minor modifications. Briefly, Magnetic Dynabeads Protein G (Invitrogen, 10004D) were coated with anti-TrkB antibody (R&D Systems, AF1494) at 200 ng of antibody per 1 µl of beads in rotation (2 h, 4 °C). Finally, lysates were mixed with the coated beads (100 µg of total protein per 15 µl of beads) and incubated in rotation (overnight, 4 °C).
# Proteins were separated according to their molecular weight by SDS–PAGE and transferred to a polyvinylidene fluoride membrane. Membranes were incubated with the following primary antibodies (all 1:1,000 in 3% BSA in TBS-T, overnight, 4 °C): anti-TrkB (R&D Systems, AF1494), anti-β-actin (Sigma-Aldrich, A1978), anti-phospho-mTOR (Cell Signaling Technology, 5536S), anti-phospho-p44/42 MAPK (Erk1/2) (Cell Signaling Technology, 9106S), anti-mTOR (Cell Signaling Technology, 2972S) and anti-p44/42 MAPK (Erk1/2) (Cell Signaling Technology, 9102S). […] Protein bands were visualized using enhanced chemiluminescent substrate (Thermo Scientific, 32132, ECL Plus) and imaged with a charge-coupled device camera (G:BOX, Syngene).
# T1 sequence (Q16620 32-822): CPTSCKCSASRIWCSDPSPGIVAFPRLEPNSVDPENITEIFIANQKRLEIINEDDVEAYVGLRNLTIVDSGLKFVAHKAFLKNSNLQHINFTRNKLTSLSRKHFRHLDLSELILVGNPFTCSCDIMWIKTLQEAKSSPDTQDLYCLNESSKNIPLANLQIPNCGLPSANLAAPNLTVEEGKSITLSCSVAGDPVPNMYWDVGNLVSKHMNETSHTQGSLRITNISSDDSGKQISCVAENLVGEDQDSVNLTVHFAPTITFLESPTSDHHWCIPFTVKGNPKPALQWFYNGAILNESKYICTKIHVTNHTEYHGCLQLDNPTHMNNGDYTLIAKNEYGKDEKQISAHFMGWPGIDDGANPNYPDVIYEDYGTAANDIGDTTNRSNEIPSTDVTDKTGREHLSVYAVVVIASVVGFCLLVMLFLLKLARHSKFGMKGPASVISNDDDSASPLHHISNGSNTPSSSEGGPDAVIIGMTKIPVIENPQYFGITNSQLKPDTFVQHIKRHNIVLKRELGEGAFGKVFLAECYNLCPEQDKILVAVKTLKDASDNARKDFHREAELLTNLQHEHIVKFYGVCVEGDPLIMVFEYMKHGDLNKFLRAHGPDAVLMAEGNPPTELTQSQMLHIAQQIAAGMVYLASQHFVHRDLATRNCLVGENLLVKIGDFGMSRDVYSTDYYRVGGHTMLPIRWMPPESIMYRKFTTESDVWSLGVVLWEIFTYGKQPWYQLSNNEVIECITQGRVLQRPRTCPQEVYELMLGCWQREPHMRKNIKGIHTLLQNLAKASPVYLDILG
structure (smiles),measurement,setting,value
"CCN(CC)C(=O)C1C=C2c3cccc4[nH]cc(c34)CC2N(C)C1 (centres unmarked) [LSD, lysergic acid diethylamide]",Kd,[1],0.93 ± 0.414 nM
same,Bmax,"[1]; ^3H-LSD saturation, human TrkB",4.028 ± 0.326 pmol mg^−1 protein
same,"Bmax (specific binding with Hill slope, best-fit)","[1]; ext fig 1a, TRKB.wt, n=2",111.1
same,"h (Hill slope, best-fit)","[1]; ext fig 1a, TRKB.wt, n=2",0.4722
same,Kd,[2],0.656 ± 0.093 nM
same,"h (best-fit, 1a)","[2]; WT, Hill slope",1.255
same,"Bmax (best-fit, 1a)","[2]; WT, specific binding with Hill slope",100.9
same,Bmax,"[2]; ^3H-LSD saturation, rat TrkB",3.053 ± 0.099 pmol mg^−1 protein
same,Kd,[3],0.425 ± 0.296 nM
same,Bmax,"[3]; ^3H-LSD saturation, mouse TrkB",7.388 ± 0.771 pmol mg^−1 protein
same,"Bmax (specific binding with Hill slope, best-fit)","[3]; ext fig 1b, TRKB.wt, n=2",117.1
same,"h (Hill slope, best-fit)","[3]; ext fig 1b, TRKB.wt, n=2",0.5552
same,"K (dissociation, one phase exponential decay)",[4],0.008532
same,"NS (dissociation, one phase exponential decay)",[4],2.667
same,"Y0 (dissociation, one phase exponential decay)",[4],110.7
same,"K (dissociation, one phase exponential decay)",[5],0.02402
same,"NS (dissociation, one phase exponential decay)",[5],6.951
same,"Y0 (dissociation, one phase exponential decay)",[5],108.1
same,TrkB phosphorylation (pY816),[6],increases phosphorylation of TrkB tyrosine 816 (pY816)
same,TrkB phosphorylation (pY816),[7],increases phosphorylation of TrkB tyrosine 816 (pY816)
same,TrkB:PLCγ1 interaction,[8],increases TrkB:PLCγ1 interaction
same,TrkB:PLCγ1 interaction,[9],these effects are impaired
same,phosphorylation of mTOR,[10],promotes phosphorylation of mTOR for at least 1 h

# — paper PMC10244169, “Psychedelics promote plasticity by directly binding to BDNF receptor TrkB” (Nature Neuroscience, 2023)
